Reference: patent US7074834B2, “Long acting, reversible veterinary sedative and analgesic and method of use” (University of Kentucky Foundation, priority 2000, dated 2006)
One block for each molecule: values may come before it.

Legend:
Assay type in all cases: in vivo
horse [1] = assay: Sedation / head ptosis response in the standing horse after intravenous administration
Description: As used herein by “rapid onset” is meant to include the time interval from administration of the active, e.g., guanabenz acetate, until the drug begins to take effect and produce the intended response, e.g., sedation and/or tranquilization and /or analgesia. For the compositions disclosed herein, this time interval typically ranges from between about 1 minute to about 30 minutes. As one of skill in the art can appreciate, the length of time for onset of action can vary, e.g., depending upon the route of administration, the species, age, size, and health status of the animal and the like. In the adult horse, for example, the clinical signs of sedation will begin to appear within 1–3 minutes following a single intravenous administration of about 100 mg of guanabenz or guanabenz acetate.
The term “analgesia” or “analgesic” is meant to include any conscious relief from a painful stimulus in an animal. In general, an analgesic is an agent that alleviates pain or reduces the sensation of pain without causing loss of consciousness. The term “long lasting” is generally meant to include the time interval from the onset of effect of the active until the effect has waned to a subclinical level. Thus, the establishment of this time interval is subjective but is readily ascertainable in the hands of the skilled artisan. Of course the duration of action of the active can vary, e.g., depending upon the route of administration, the species, age, size, and health status of the animal and the like. In the adult horse, for example, the clinical signs of sedation will begin to appear within 1–3 minutes following a single intravenous administration of about 100 mg of guanabenz or guanabenz acetate and the duration of action is up to about 4 hours.
In one embodiment, the present invention provides the surprising discovery that guanabenz acetate, after a single intravenous dose of about 0.2 milligrams per kilogram per horse, produces a rapid onset of sedation and/or, tranquilization and/or analgesia in the standing horse.
The solid circles (● - - - ●) show head ptosis measured as cm above ground level after rapid intravenous administration of guanabenz.

horse [2] = assay: Heat lamp equine analgesia model; settings: horse 1000 lbs, 0.2 mg/kg (100 mg) intravenously
Description: A horse (1000 lbs) in was administered guanabenz at a dose of 0.2 mg/kg (100 mg) intravenously at time point 0 (see FIG. 2). […] Note also that this response is maintained at full intensity for approximately 30 minutes and declines thereafter, and returns to control values by 6 hrs post administration. The solid circles (● - - - ●) show the increasing control latency in our heat lamp equine analgesia model after administration of guanabenz at indicated zero time.

[3] = Blood glucose, urine glucose, urine production and urine specific gravity after intravenous administration; settings: horse about 1000 lbs, 0.2 mg/kg (100 mg) intravenously
Description: Referring now to FIG. 3, a horse (about 1000 lbs) was administered guanabenz at a dose of 0.2 mg/kg (100 mg) intravenously at time point 0. […] The solid circles (● - - - ●) show blood glucose levels after rapid intravenous administration of guanabenz. Note also the increase in urine glucose levels after the administration of guanabenz. The open circles (◯-◯) show the corresponding urinary concentrations of glucose after this administration.
In FIG. 3b, note how the dose of 100 mg of guanabenz yields an increase in urine production as indicated by the increase in volume of urine collected. The solid circles (● - - - ●) show volume of urinary output after rapid intravenous administration of guanabenz. Note also in FIG. 3c, the decrease in specific gravity of the urine after the administration of the guanabenz. The solid circles (● - - - ●) show the corresponding urinary specific gravity values after this administration.

[4] = standing horse, single intravenous dose of about 0.2 mg/kg

SMILES: COC(=O)[C@@H]1[C@H]2C[C@H]3c4[nH]c5ccccc5c4CCN3C[C@@H]2CC[C@@H]1O [yohimbine]
reversal of guanabenz tranquilization and sedation (head ptosis), FIG. 1 (horse [1]; horse given guanabenz 100 mg i.v., yohimbine 60 mg intravenously): rapid reversal
reversal of guanabenz acetate sedation and head ptosis response (horse [1]; horse, guanabenz acetate about 0.2 mg/kg i.v., antagonist given intravenously): rapidly reversible

SMILES: N=C(N)N/N=C/c1c(Cl)cccc1Cl [guanabenz acetate]
duration for which sedation and head ptosis are maintained (horse [1]; [4]): up to four hours
onset of profound sedation and head ptosis (horse [1]; [4]): within one minute

blood glucose levels, FIG. 3a [3]: transient increase
specific gravity of the urine, FIG. 3c [3]: decrease
urine glucose levels, FIG. 3a [3]: increase
urine production (volume of urine collected), FIG. 3b [3]: increase
SMILES: N=C(N)N/N=C/c1c(Cl)cccc1Cl [guanabenz, 1-[2,6-dichlorobenzylidine-amino]-3-guanidine]
head ptosis response (cm above ground level), FIG. 1 (horse [1]; horse about 1000 lbs, 0.2 mg/kg (100 mg) intravenously): very rapid onset
onset of analgesia response (desensitization to the heat lamp), FIG. 2 (horse [2]): very rapid onset
time for which the analgesia response is maintained at full intensity (horse [2]): approximately 30 minutes
time at which the analgesia response returns to control values (horse [2]; post administration): ≤ 6 h
